# Article PMC10845205, “Discovery of novel antibacterial agent for the infected wound treatment: all-hydrocarbon stapling optimization of LL-37” (Theranostics, 2024)
# Where two headings read alike, the source gives them in different places. Positions of bridges follow the written chain, without caps; N, C: chain ends. Non-standard residues stand in square brackets, D forms with d. Residues, ends and D or L forms follow the SMILES beside them. R8 = C=CCCCCCC[C@@](C)(N)C(=O)O; S5 = C=CCCC[C@](C)(N)C(=O)O
# Experiments:
# [1] = test system: S. epidermidis
# Method: (§1) According to the protocol of Clinical & Laboratory Standards Institute, the minimum inhibitory concentration (MIC) of the linear and stapled peptides against a panel of gram-positive and gram-negative bacteria was determined by the broth microdilution method. […]
# (§2) Bacterial strains and culture
# (§3) Bacterial type stains ATCC 25923 S. aureus, ATCC 12228 S. epidermidis, ATCC […]
# (§4) aeruginosa and ATCC 13883 K. pneumoniae were obtained from Shanghai Bioresource Collection Center. The bacterial culture medium was purchased from Oxoid and autoclaved according to the instructions from manufacturer. The isolated strains were cultured in Mueller Hinton II broth and continuously shaken at 140 rpm for 18 hours to the middle of the exponential growth phase at 37 °C with an OD value of 0.4-0.5.
# (§5) Bacterial suspensions with an OD value of 0.1, approximately […], were then diluted for further assays.
# (§6) The minimal inhibition concentration (MIC) of the linear and stapled peptides was determined using the microbroth dilution method from the Clinical and Laboratory Standards Institute (CLSI)[2, 3]. Bacterial suspensions of 10 6 CFU/mL were prepared in MH-II broth and peptide solutions at varying concentrations were prepared in phosphate buffer saline (PBS). Then 50 μL peptide solution and 50 μL bacterial suspension were mixed in a 96 -well plate. Plates were incubated for 24 hours at 37 °C.
# (§7) 10 μL AlamarBlue cell viability reagent (ThermoFisher Scientific, UK) was added to each well, then the plate was re -incubated for a further 2 hours at 37 °C. The MIC was recorded as the minimum concentration of peptides required to completely in hibit bacteria growth. For serum stability assessment, the peptide solutions were pre - incubated with 50% human serum for 4 h before the MIC determination. Experiments were performed in 3 independent measurements. […]
# [2] = test system: S. aureus
# Method: as §1, §2, §3, §4, §5, §6, §7
# [3] = test system: E. coli
# Method: as §1, §2, §3, §4, §5, §6, §7
# [4] = test system: E. faecalis
# Method: as §1, §2, §3, §4, §5, §6, §7
# [5] = test system: K. pneumoniae
# Method: as §1, §2, §3, §4, §5, §6, §7
# [6] = test system: A. baumannii
# Method: as §1, §2, §3, §4, §5, §6, §7
# [7] = test system: P. aeruginosa
# Method: as §1, §2, §3, §4, §5, §6, §7
# [8] = Serum stability assay; type: in vitro ADME, human; conditions: for metabolised at 1 h, 0.4 mg/mL: human serum in pH 7.4 PBS, 37 °C, RP-HPLC, read-out: fraction hydrolyzed within 1 h; for TD50 (time at which 50% of the peptide is degraded in the presence of serum): human serum, 2 mg/mL peptide in pH 7.4 PBS mixed with serum 1:4, 37 °C, up to 48 h, RP-HPLC UV 220 nm, 3 independent measurements
# From the text: Maintaining high stability and presenting high compatibility in the complex physiological environment are important criterions for the clinical translation of AMPs. […] The derivatives were mixed with human serum in pH 7.4 PBS, simulating the degradation process of peptides by proteases in vivo. The percentages of intact derivatives were monitored and determined with time according to the PR-HPLC. […]
# Serum stability of the linear and stapled peptides was examined by RP -HPLC as previously described. 2 mg/mL peptide solution was prepared in pH 7.4 PBS and incubated with human serum (Gemini, USA) to the final volume ratio of 1:4 at 37 °C.
# At various time intervals, 50 μL mixture was added to 50 μL ethanol to terminate the enzymatic hydrolysis. After centrifugation at 10,000 rpm for 10 minutes under 4 °C, […]
# the supernatant was collected and analyzed by RP-HPLC, with a UV detector monitored at 220 nm. Record the peak area of the intact peptide and calculate the percentage of remaining peptide based on the integrated area as, Peptide remaining (%) = peak area of remaining peptide/peak area of intact peptide×100%. […]
MIC S. epidermidis ([1]; 24 h) [mg/L],MIC S. aureus ([2]; 24 h) [mg/L],MIC E. coli ([3]; 24 h) [mg/L],MIC E. faecalis ([4]; 24 h) [mg/L],MIC K. pneumoniae ([5]; 24 h) [mg/L],MIC A. baumannii ([6]; 24 h) [mg/L],MIC P. aeruginosa ([7]; 24 h) [mg/L],Compound,"metabolised at 1 h, 0.4 mg/mL [8] [%]",TD50 (time at which 50% of the peptide is degraded in the presence of serum) [8] [h],"MIC S. epidermidis ([1]; CLSI broth microdilution, MH-II broth, 24 h 37 °C, AlamarBlue, ATCC 12228, 3 independent measurements) [mg/L]","MIC S. aureus ([2]; CLSI broth microdilution, MH-II broth, 10^6 CFU/mL, 24 h 37 °C, AlamarBlue, ATCC 25923, 3 independent measurements) [mg/L]","MIC E. coli ([3]; CLSI broth microdilution, MH-II broth, 24 h 37 °C, AlamarBlue, ATCC 25922, 3 independent measurements) [mg/L]","MIC E. faecalis ([4]; CLSI broth microdilution, MH-II broth, 24 h 37 °C, AlamarBlue, ATCC 29212, 3 independent measurements) [mg/L]","MIC K. pneumoniae ([5]; CLSI broth microdilution, MH-II broth, 24 h 37 °C, AlamarBlue, ATCC 13883, 3 independent measurements) [mg/L]","MIC A. baumannii ([6]; CLSI broth microdilution, MH-II broth, 24 h 37 °C, AlamarBlue, ATCC 19606, 3 independent measurements) [mg/L]","MIC P. aeruginosa ([7]; CLSI broth microdilution, MH-II broth, 24 h 37 °C, AlamarBlue, ATCC 27853, 3 independent measurements) [mg/L]"
256,64,64,256,64,32,128,"CC[C@H](C)[C@@H]1NC(=O)[C@H](CCCNC(=N)N)NC(=O)[C@H](CCC(N)=O)NC(=O)[C@H](C(C)C)NC(=O)[C@](C)(NC(=O)[C@H](CCCNC(=N)N)NC(=O)[C@H](CCCCN)NC(C)=O)CCCCCCC=CCCC[C@@](C)(C(=O)N[C@@H](CC(C)C)C(=O)N[C@@H](CCCNC(=N)N)C(N)=O)NC(=O)[C@H](CC(=O)O)NC(=O)[C@H](CCCCN)NC1=O [KR-12 (I3, F10)] (Ac-KR[R8]VQRIKD[S5]LR-NH2; staple 3-10)",–,–,–,–,–,–,–,–,–
> 256,> 256,>256,> 256,> 256,> 256,> 256,"CC[C@H](C)[C@@H]1NC(=O)[C@H](CCCNC(=N)N)NC(=O)[C@](C)(NC(C)=O)CCCCCCC=CCCC[C@@](C)(C(=O)N[C@@H](CC(=O)O)C(=O)N[C@@H](Cc2ccccc2)C(=O)N[C@@H](CC(C)C)C(=O)N[C@@H](CCCNC(=N)N)C(N)=O)NC(=O)[C@H]([C@@H](C)CC)NC(=O)[C@H](CCCNC(=N)N)NC(=O)[C@H](CCC(N)=O)NC(=O)[C@H](C(C)C)NC1=O [KR-12 (K1, K8)] (Ac-[R8]RIVQRI[S5]DFLR-NH2; staple 1-8)",–,–,–,–,–,–,–,–,–
> 256,64,32,256,64,64,64,"CC[C@H](C)[C@@H]1NC(=O)[C@H](CCCNC(=N)N)NC(=O)[C@](C)(NC(=O)[C@@H](NC(=O)[C@@H](NC(=O)[C@H](CCCNC(=N)N)NC(=O)[C@H](CCCCN)NC(C)=O)[C@@H](C)CC)C(C)C)CCCCCCC=CCCC[C@@](C)(C(N)=O)NC(=O)[C@H](CC(C)C)NC(=O)[C@H](Cc2ccccc2)NC(=O)[C@H](CC(=O)O)NC(=O)[C@H](CCCCN)NC1=O [KR-12 (Q5, R12)] (Ac-KRIV[R8]RIKDFL[S5]-NH2; staple 5-12)",–,–,–,–,–,–,–,–,–
64,256,128,256,128,128,256,"CC[C@H](C)[C@@H]1NC(=O)[C@H](CCCNC(=N)N)NC(=O)[C@H](CCC(N)=O)NC(=O)[C@H](C(C)C)NC(=O)[C@H]([C@@H](C)CC)NC(=O)[C@](C)(NC(=O)[C@H](CCCCN)NC(C)=O)CCCCCCC=CCCC[C@@](C)(C(=O)N[C@@H](Cc2ccccc2)C(=O)N[C@@H](CC(C)C)C(=O)N[C@@H](CCCNC(=N)N)C(N)=O)NC(=O)[C@H](CCCCN)NC1=O [KR-12 (R2, D9)] (Ac-K[R8]IVQRIK[S5]FLR-NH2; staple 2-9)",–,–,–,–,–,–,–,–,–
256,128,128,> 256,128,128,128,"CC[C@H](C)[C@@H]1NC(=O)[C@H](CCCNC(=N)N)NC(=O)[C@H](CCC(N)=O)NC(=O)[C@](C)(NC(=O)[C@@H](NC(=O)[C@H](CCCNC(=N)N)NC(=O)[C@H](CCCCN)NC(C)=O)[C@@H](C)CC)CCCCCCC=CCCC[C@@](C)(C(=O)N[C@@H](CCCNC(=N)N)C(N)=O)NC(=O)[C@H](Cc2ccccc2)NC(=O)[C@H](CC(=O)O)NC(=O)[C@H](CCCCN)NC1=O [KR-12 (V4, L11)] (Ac-KRI[R8]QRIKDF[S5]R-NH2; staple 4-11)",–,–,–,–,–,–,–,–,–
–,–,–,–,–,–,–,CC[C@H](C)[C@H](NC(=O)[C@H](CCCCN)NC(=O)[C@H](CCC(=O)O)NC(=O)[C@H](CCCCN)NC(=O)[C@H](CO)NC(=O)[C@H](CCCCN)NC(=O)[C@H](CCCNC(=N)N)NC(=O)[C@H](Cc1ccccc1)NC(=O)[C@H](Cc1ccccc1)NC(=O)[C@H](CC(=O)O)NC(=O)CNC(=O)[C@H](CC(C)C)NC(=O)[C@@H](N)CC(C)C)C(=O)NCC(=O)N[C@@H](CCCCN)C(=O)N[C@@H](CCC(=O)O)C(=O)N[C@@H](Cc1ccccc1)C(=O)N[C@@H](CCCCN)C(=O)N[C@@H](CCCNC(=N)N)C(=O)N[C@H](C(=O)N[C@H](C(=O)N[C@@H](CCC(N)=O)C(=O)N[C@@H](CCCNC(=N)N)C(=O)N[C@H](C(=O)N[C@@H](CCCCN)C(=O)N[C@@H](CC(=O)O)C(=O)N[C@@H](Cc1ccccc1)C(=O)N[C@@H](CC(C)C)C(=O)N[C@@H](CCCNC(=N)N)C(=O)N[C@@H](CC(N)=O)C(=O)N[C@@H](CC(C)C)C(=O)N[C@H](C(=O)N1CCC[C@H]1C(=O)N[C@@H](CCCNC(=N)N)C(=O)N[C@H](C(=O)N[C@@H](CCC(=O)O)C(=O)N[C@@H](CO)C(=O)O)[C@@H](C)O)C(C)C)[C@@H](C)CC)C(C)C)[C@@H](C)CC [LL-37],> 50,0.58,–,–,–,–,–,–,–
–,–,–,–,–,–,–,"polymyxin b [PMB, reference compound]",–,–,128,64,4,256,16,4,8

Compound,MIC S. epidermidis ([1]; 24 h) [mg/L],MIC S. aureus ([2]; 24 h) [mg/L],MIC E. coli ([3]; 24 h) [mg/L],MIC E. faecalis ([4]; 24 h) [mg/L],MIC K. pneumoniae ([5]; 24 h) [mg/L],MIC A. baumannii ([6]; 24 h) [mg/L],MIC P. aeruginosa ([7]; 24 h) [mg/L],"metabolised at 1 h, 0.4 mg/mL [8] [%]",TD50 (time at which 50% of the peptide is degraded in the presence of serum) [8] [h],"MIC S. epidermidis ([1]; CLSI broth microdilution, MH-II broth, 24 h 37 °C, AlamarBlue, ATCC 12228, 3 independent measurements) [mg/L]","MIC S. aureus ([2]; CLSI broth microdilution, MH-II broth, 10^6 CFU/mL, 24 h 37 °C, AlamarBlue, ATCC 25923, 3 independent measurements) [mg/L]","MIC E. coli ([3]; CLSI broth microdilution, MH-II broth, 24 h 37 °C, AlamarBlue, ATCC 25922, 3 independent measurements) [mg/L]","MIC E. faecalis ([4]; CLSI broth microdilution, MH-II broth, 24 h 37 °C, AlamarBlue, ATCC 29212, 3 independent measurements) [mg/L]","MIC K. pneumoniae ([5]; CLSI broth microdilution, MH-II broth, 24 h 37 °C, AlamarBlue, ATCC 13883, 3 independent measurements) [mg/L]","MIC A. baumannii ([6]; CLSI broth microdilution, MH-II broth, 24 h 37 °C, AlamarBlue, ATCC 19606, 3 independent measurements) [mg/L]","MIC P. aeruginosa ([7]; CLSI broth microdilution, MH-II broth, 24 h 37 °C, AlamarBlue, ATCC 27853, 3 independent measurements) [mg/L]"
"Ac-KRIVQRIKDFLR-NH2 [KR-12, reference compound]",> 256,32,128,128,> 256,> 256,256,> 50,0.78,–,–,–,–,–,–,–
